The text below walks through data of patent publication US7728012B2, “Carboxamide compounds and their use as calpain inhibitors” (Abbott GmbH & Co. KG, priority 2006, dated 2010).

Format in all cases: biochemical
Experiment [1] has as its target T1, cathepsin K activated from recombinant human procathepsin K (Homo sapiens, UniProt P43235).
T1 construct: purchased Calbiochem 342001; host or cells: E. coli
T1 sequence (P43235 115-329): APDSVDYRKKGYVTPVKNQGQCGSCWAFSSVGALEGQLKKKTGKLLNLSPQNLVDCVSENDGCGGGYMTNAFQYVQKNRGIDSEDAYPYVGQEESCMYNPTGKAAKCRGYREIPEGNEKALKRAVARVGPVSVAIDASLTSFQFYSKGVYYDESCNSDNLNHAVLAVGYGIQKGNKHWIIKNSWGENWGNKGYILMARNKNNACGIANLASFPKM
In words: Cathepsin K kinetic fluorescence enzyme inhibition assay. The settings on record: selectivity ratio versus calpain I.

Experiment [2] deals with T2, cathepsin L isolated from human liver (Homo sapiens, UniProt P07711).
T2 construct: cathepsin L—isolated from human liver; purchased Calbiochem 219402; host or cells: human liver (tissue isolate)
In words: Cathepsin L kinetic fluorescence enzyme inhibition assay. The settings on record: selectivity ratio versus calpain I. In a few lines: (§1)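 cat B 0.25 nM + Z-Phe-Arg-AMC 100 μM; cat L 1 nM + Z-Phe-Arg-AMC 2 μM; cat S 0.5 nM (E. coli-expressed) + Z-Val-Val-Arg-AMC 20 μM. 50 mM MES pH 6.0, 2.5 mM L-Cys, RT. Ex 390/em 460, kinetic; Ki app = Cheng-Prusoff from IC50, mean of 2–4 curves.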

The target of experiment [3] is T3, cathepsin B isolated from human liver (Homo sapiens, UniProt P07858).
T3 construct: cathepsin B—isolated from human liver; purchased Calbiochem 219362; host or cells: human liver (tissue isolate)
Nature of the experiment: Cathepsin B kinetic fluorescence enzyme inhibition assay. As to conditions: selectivity ratio versus calpain I. Put shortly: as §1

Experiment [4] addresses T4, calpain-I isolated from human erythrocytes (Homo sapiens, UniProt P07384).
T4 construct: calpain-I—isolated from human erythrocytes; purchased Calbiochem 208713; host or cells: human erythrocytes (tissue isolate)
T4 sequence (P07384 1-714): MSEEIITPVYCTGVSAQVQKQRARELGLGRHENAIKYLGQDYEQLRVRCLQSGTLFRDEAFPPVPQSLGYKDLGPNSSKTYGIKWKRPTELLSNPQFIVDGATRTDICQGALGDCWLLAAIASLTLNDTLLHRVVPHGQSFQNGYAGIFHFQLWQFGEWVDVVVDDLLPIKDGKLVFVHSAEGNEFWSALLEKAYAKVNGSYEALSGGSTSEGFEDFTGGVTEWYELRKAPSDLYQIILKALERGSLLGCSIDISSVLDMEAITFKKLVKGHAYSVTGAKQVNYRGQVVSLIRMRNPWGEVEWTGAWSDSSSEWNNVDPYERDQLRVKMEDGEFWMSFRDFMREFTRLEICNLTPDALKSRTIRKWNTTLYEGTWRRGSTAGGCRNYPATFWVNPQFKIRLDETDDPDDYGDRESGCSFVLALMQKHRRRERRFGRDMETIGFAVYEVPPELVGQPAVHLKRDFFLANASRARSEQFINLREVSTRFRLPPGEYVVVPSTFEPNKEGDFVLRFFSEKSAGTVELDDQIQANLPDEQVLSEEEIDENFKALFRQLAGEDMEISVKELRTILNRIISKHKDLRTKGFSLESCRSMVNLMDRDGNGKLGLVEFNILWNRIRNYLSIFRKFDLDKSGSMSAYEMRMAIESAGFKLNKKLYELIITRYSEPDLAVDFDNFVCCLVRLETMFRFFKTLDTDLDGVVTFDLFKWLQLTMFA
T4 sequence (P04632 1-268 partner): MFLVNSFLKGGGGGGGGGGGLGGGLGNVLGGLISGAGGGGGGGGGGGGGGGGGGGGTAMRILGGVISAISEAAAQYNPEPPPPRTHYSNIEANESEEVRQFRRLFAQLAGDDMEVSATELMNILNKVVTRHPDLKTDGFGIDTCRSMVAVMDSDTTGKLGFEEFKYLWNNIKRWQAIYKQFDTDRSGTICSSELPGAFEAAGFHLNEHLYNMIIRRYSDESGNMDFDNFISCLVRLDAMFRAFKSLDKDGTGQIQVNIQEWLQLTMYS
Nature of the experiment: Calpain I kinetic fluorescence enzyme inhibition assay. As to conditions: apparent Ki from IC50 by Cheng-Prussoff; average of 2 to 4 dose-effect plots.

The target in experiment [5] is T5, recombinant human cathepsin S (Homo sapiens, UniProt P25774).
T5 construct: purchased Calbiochem 219343; host or cells: E. coli
In words: Cathepsin S kinetic fluorescence enzyme inhibition assay. As to conditions: selectivity ratio versus calpain I. Put shortly: as §1

Molecules are shown by their SMILES. Bounds are passed on as bounds.

T2 sequence (P07711 114-333): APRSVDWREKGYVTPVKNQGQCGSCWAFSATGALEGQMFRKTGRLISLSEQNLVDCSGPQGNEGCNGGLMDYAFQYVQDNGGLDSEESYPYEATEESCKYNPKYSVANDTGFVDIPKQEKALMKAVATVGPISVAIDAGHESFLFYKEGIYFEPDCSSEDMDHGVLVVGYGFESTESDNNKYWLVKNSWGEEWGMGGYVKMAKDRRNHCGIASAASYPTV
T5 sequence (P25774 115-331): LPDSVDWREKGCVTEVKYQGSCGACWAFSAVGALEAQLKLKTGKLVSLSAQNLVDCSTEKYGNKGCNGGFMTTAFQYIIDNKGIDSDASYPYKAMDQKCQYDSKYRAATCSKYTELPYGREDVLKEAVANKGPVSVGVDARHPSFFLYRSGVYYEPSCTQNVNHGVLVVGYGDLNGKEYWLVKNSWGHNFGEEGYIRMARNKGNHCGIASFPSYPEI

For the compound `COc1c(C)cc(C)cc1-c1ccn(-c2ncccc2C(=O)NC(Cc2ccccc2)C(=O)C(N)=O)n1` (centres unmarked) [Example 121, N-[3-Amino-2,3-dioxo-1-(phenylmethyl)propyl]-2-{3-[3,5-dimethyl-2-(methyloxy)phenyl]-1H-pyrazol-1-yl}pyridine-3-carboxamide], the “Sel cat. K (Ki(cathepsin K)/Ki(calpain) ratio)” value in experiment [1] is “++ (Ki(cathepsin K)/Ki(calpain) ratio of ≧30)”. In addition, in experiment [2], the “Sel cat. L (Ki(cathepsin L)/Ki(calpain) ratio)” value is listed as “++ (Ki(cathepsin L)/Ki(calpain) ratio of ≧50)”. For the same compound, the “Sel cat. B (Ki(cathepsin B)/Ki(calpain) ratio)” value in experiment [3] was “++ (Ki(cathepsin B)/Ki(calpain) ratio of ≧30)”. In addition, the Ki in experiment [4] was no more than 40 nM. In addition, the “Sel cat. S (Ki(cathepsin S)/Ki(calpain) ratio)” value in experiment [5] is “++ (Ki(cathepsin S)/Ki(calpain) ratio of ≧100)”.

In the case of `NC(=O)C(=O)C(Cc1ccc(F)cc1)NC(=O)c1cccnc1-n1ccc(-c2ccccc2)n1` (centres unmarked) [Example 123, N-{3-Amino-1-[(4-fluorophenyl)methyl]-2,3-dioxopropyl}-2-(3-phenyl-1H-pyrazol-1-yl)pyridine-3-carboxamide], the “Sel cat. K (Ki(cathepsin K)/Ki(calpain) ratio)” value in experiment [1] was “++ (Ki(cathepsin K)/Ki(calpain) ratio of ≧30)”. Also, the “Sel cat. L (Ki(cathepsin L)/Ki(calpain) ratio)” value in experiment [2] is recorded as “++ (Ki(cathepsin L)/Ki(calpain) ratio of ≧50)”. For the same compound, the “Sel cat. B (Ki(cathepsin B)/Ki(calpain) ratio)” value in experiment [3] is “++ (Ki(cathepsin B)/Ki(calpain) ratio of ≧30)”. Further, in experiment [4], the Ki is no more than 40 nM. The “Sel cat. S (Ki(cathepsin S)/Ki(calpain) ratio)” value in experiment [5] is given as “++ (Ki(cathepsin S)/Ki(calpain) ratio of ≧100)”.

With `NC(=O)C(=O)C(Cc1ccccc1)NC(=O)c1cccnc1-n1ccc(-c2ccccc2OC(F)(F)F)n1` (centres unmarked) [Example 124, N-[3-Amino-2,3-dioxo-1-(phenylmethyl)propyl]-2-(3-{2-[(trifluoromethyl)oxy]phenyl}-1H-pyrazol-1-yl)pyridine-3-carboxamide], the “Sel cat. K (Ki(cathepsin K)/Ki(calpain) ratio)” value in experiment [1] is “++ (Ki(cathepsin K)/Ki(calpain) ratio of ≧30)”. Moreover, in experiment [2], the “Sel cat. L (Ki(cathepsin L)/Ki(calpain) ratio)” value is recorded as “++ (Ki(cathepsin L)/Ki(calpain) ratio of ≧50)”. Moreover, the “Sel cat. B (Ki(cathepsin B)/Ki(calpain) ratio)” value in experiment [3] is on record as “++ (Ki(cathepsin B)/Ki(calpain) ratio of ≧30)”. For the same compound, the Ki in experiment [4] was no more than 40 nM. The “Sel cat. S (Ki(cathepsin S)/Ki(calpain) ratio)” value in experiment [5] is reported as “++ (Ki(cathepsin S)/Ki(calpain) ratio of ≧100)”.

On to `COc1cc(F)ccc1-c1ccn(-c2ncccc2C(=O)NC(Cc2ccccc2)C(=O)C(N)=O)n1` (centres unmarked) [Example 125, N-[3-Amino-2,3-dioxo-1-(phenylmethyl)propyl]-2-{3-[4-fluoro-2-(methyloxy)phenyl]-1H-pyrazol-1-yl}pyridine-3-carboxamide], for which the “Sel cat. K (Ki(cathepsin K)/Ki(calpain) ratio)” value in experiment [1] is “++ (Ki(cathepsin K)/Ki(calpain) ratio of ≧30)”. Further, the “Sel cat. L (Ki(cathepsin L)/Ki(calpain) ratio)” value in experiment [2] is on record as “++ (Ki(cathepsin L)/Ki(calpain) ratio of ≧50)”. Further, in experiment [3], the “Sel cat. B (Ki(cathepsin B)/Ki(calpain) ratio)” value is on record as “++ (Ki(cathepsin B)/Ki(calpain) ratio of ≧30)”. In addition, the Ki in experiment [4] was no more than 40 nM. Besides, the “Sel cat. S (Ki(cathepsin S)/Ki(calpain) ratio)” value in experiment [5] was “++ (Ki(cathepsin S)/Ki(calpain) ratio of ≧100)”.

For the compound `NC(=O)C(=O)C(Cc1ccc(OCc2ccccc2)cc1)NC(=O)c1cccnc1-n1ccc(-c2ccccc2)n1` (centres unmarked) [Example 127, N-[3-Amino-2,3-dioxo-1-({4-[(phenylmethyl)oxy]phenyl}methyl)propyl]-2-(3-phenyl-1H-pyrazol-1-yl)pyridine-3-carboxamide], the “Sel cat. K (Ki(cathepsin K)/Ki(calpain) ratio)” value in experiment [1] is given as “++ (Ki(cathepsin K)/Ki(calpain) ratio of ≧30)”. Also, in experiment [2], the “Sel cat. L (Ki(cathepsin L)/Ki(calpain) ratio)” value was “++ (Ki(cathepsin L)/Ki(calpain) ratio of ≧50)”. Also, in experiment [3], the “Sel cat. B (Ki(cathepsin B)/Ki(calpain) ratio)” value is recorded as “++ (Ki(cathepsin B)/Ki(calpain) ratio of ≧30)”. In experiment [4], the Ki is no more than 40 nM. Moreover, the “Sel cat. S (Ki(cathepsin S)/Ki(calpain) ratio)” value in experiment [5] is given as “++ (Ki(cathepsin S)/Ki(calpain) ratio of ≧100)”.

For the compound `COc1ccc(F)cc1-c1ccn(-c2ncccc2C(=O)NC(Cc2ccccc2)C(=O)C(N)=O)n1` (centres unmarked) [Example 130, N-[3-Amino-2,3-dioxo-1-(phenylmethyl)propyl]-2-{3-[5-fluoro-2-(methyloxy)phenyl]-1H-pyrazol-1-yl}pyridine-3-carboxamide], the “Sel cat. K (Ki(cathepsin K)/Ki(calpain) ratio)” value in experiment [1] is reported as “++ (Ki(cathepsin K)/Ki(calpain) ratio of ≧30)”. Further, the “Sel cat. L (Ki(cathepsin L)/Ki(calpain) ratio)” value in experiment [2] is recorded as “++ (Ki(cathepsin L)/Ki(calpain) ratio of ≧50)”. In experiment [3], the “Sel cat. B (Ki(cathepsin B)/Ki(calpain) ratio)” value was “++ (Ki(cathepsin B)/Ki(calpain) ratio of ≧30)”. Besides, the Ki in experiment [4] is no more than 40 nM. Also, the “Sel cat. S (Ki(cathepsin S)/Ki(calpain) ratio)” value in experiment [5] is given as “++ (Ki(cathepsin S)/Ki(calpain) ratio of ≧100)”.

Consider `COc1ccc(Cl)cc1-c1ccn(-c2ncccc2C(=O)NC(Cc2ccccc2)C(=O)C(N)=O)n1` (centres unmarked) [Example 131, N-[3-Amino-2,3-dioxo-1-(phenylmethyl)propyl]-2-{3-[5-chloro-2-(methyloxy)phenyl]-1H-pyrazol-1-yl}pyridine-3-carboxamide], for which the “Sel cat. K (Ki(cathepsin K)/Ki(calpain) ratio)” value in experiment [1] is recorded as “++ (Ki(cathepsin K)/Ki(calpain) ratio of ≧30)”. In addition, the “Sel cat. L (Ki(cathepsin L)/Ki(calpain) ratio)” value in experiment [2] is “++ (Ki(cathepsin L)/Ki(calpain) ratio of ≧50)”. Also, in experiment [3], the “Sel cat. B (Ki(cathepsin B)/Ki(calpain) ratio)” value was “++ (Ki(cathepsin B)/Ki(calpain) ratio of ≧30)”. For the same compound, the Ki in experiment [4] was no more than 40 nM. Besides, the “Sel cat. S (Ki(cathepsin S)/Ki(calpain) ratio)” value in experiment [5] is given as “++ (Ki(cathepsin S)/Ki(calpain) ratio of ≧100)”.

As for `NC(=O)C(=O)C(Cc1ccc(OC(F)(F)F)cc1)NC(=O)c1cccnc1-n1ccc(-c2ccc(F)cc2)n1` (centres unmarked) [Example 132, N-[3-Amino-2,3-dioxo-1-({4-[(trifluoromethyl)oxy]phenyl}methyl)propyl]-2-[3-(4-fluorophenyl)-1H-pyrazol-1-yl]pyridine-3-carboxamide], in experiment [1], the “Sel cat. K (Ki(cathepsin K)/Ki(calpain) ratio)” value is reported as “++ (Ki(cathepsin K)/Ki(calpain) ratio of ≧30)”. Further, in experiment [2], the “Sel cat. L (Ki(cathepsin L)/Ki(calpain) ratio)” value is “++ (Ki(cathepsin L)/Ki(calpain) ratio of ≧50)”. In addition, in experiment [3], the “Sel cat. B (Ki(cathepsin B)/Ki(calpain) ratio)” value is “+ (10≦Ki(cathepsin B)/Ki(calpain)<30)”. Further, in experiment [4], the Ki was 40 to 100 nM. Further, the “Sel cat. S (Ki(cathepsin S)/Ki(calpain) ratio)” value in experiment [5] is recorded as “++ (Ki(cathepsin S)/Ki(calpain) ratio of ≧100)”.

On to `NC(=O)C(=O)C(Cc1ccc(OC(F)(F)F)cc1)NC(=O)c1cccnc1-n1ccc(-c2ccccc2)n1` (centres unmarked) [Example 133, N-[3-Amino-2,3-dioxo-1-({4-[(trifluoromethyl)oxy]phenyl}methyl)propyl]-2-(3-phenyl-1H-pyrazol-1-yl)pyridine-3-carboxamide], for which the “Sel cat. K (Ki(cathepsin K)/Ki(calpain) ratio)” value in experiment [1] is on record as “++ (Ki(cathepsin K)/Ki(calpain) ratio of ≧30)”. For the same compound, in experiment [2], the “Sel cat. L (Ki(cathepsin L)/Ki(calpain) ratio)” value was “++ (Ki(cathepsin L)/Ki(calpain) ratio of ≧50)”. The “Sel cat. B (Ki(cathepsin B)/Ki(calpain) ratio)” value in experiment [3] was “++ (Ki(cathepsin B)/Ki(calpain) ratio of ≧30)”. Moreover, the Ki in experiment [4] is 40 to 100 nM. In addition, the “Sel cat. S (Ki(cathepsin S)/Ki(calpain) ratio)” value in experiment [5] is recorded as “++ (Ki(cathepsin S)/Ki(calpain) ratio of ≧100)”.

Regarding `COc1ccc(CC(NC(=O)c2cccnc2-n2ccc(-c3cccc4ccccc34)n2)C(=O)C(N)=O)cc1` (centres unmarked) [Example 135, N-(3-Amino-1-{[4-(methyloxy)phenyl]methyl}-2,3-dioxopropyl)-2-(3-naphthalen-1-yl-1H-pyrazol-1-yl)pyridine-3-carboxamide], the “Sel cat. K (Ki(cathepsin K)/Ki(calpain) ratio)” value in experiment [1] is “++ (Ki(cathepsin K)/Ki(calpain) ratio of ≧30)”. Moreover, the “Sel cat. L (Ki(cathepsin L)/Ki(calpain) ratio)” value in experiment [2] is “++ (Ki(cathepsin L)/Ki(calpain) ratio of ≧50)”. In addition, in experiment [3], the “Sel cat. B (Ki(cathepsin B)/Ki(calpain) ratio)” value is recorded as “++ (Ki(cathepsin B)/Ki(calpain) ratio of ≧30)”. The Ki in experiment [4] was no more than 40 nM. Moreover, in experiment [5], the “Sel cat. S (Ki(cathepsin S)/Ki(calpain) ratio)” value was “++ (Ki(cathepsin S)/Ki(calpain) ratio of ≧100)”.
